Data set [1] in a line: Metabolic stability in human liver microsomes (in vitro t1/2). The data set is classed as in vitro ADME. The note with it: for half-life: human, human liver microsomes. The method, then: Human liver microsomes (20 mg/mL) were obtained from Xenotech, LLC (Lenexa, Kans.). β-nicotinamide adenine dinucleotide phosphate, reduced form (NADPH), magnesium chloride (MgCl2), and dimethyl sulfoxide (DMSO) were purchased from Sigma-Aldrich.
7.5 mM stock solutions of test compounds were prepared in DMSO. The 7.5 mM stock solutions were diluted to 12.5-50 μM in acetonitrile (ACN). The 20 mg/mL human liver microsomes were diluted to 0.625 mg/mL in 0.1 M potassium phosphate buffer, pH 7.4, containing 3 mM MgCl2. The diluted microsomes were added to wells of a 96-well deep-well polypropylene plate in triplicate. A 10 μL aliquot of the 12.5-50 μM test compound was added to the microsomes and the mixture was pre-warmed for 10 minutes. Reactions were initiated by addition of pre-warmed NADPH solution. The final reaction volume was 0.5 mL and contained 0.5 mg/mL human liver microsomes, 0.25-1.0 μM test compound, and 2 mM NADPH in 0.1 M potassium phosphate buffer, pH 7.4, and 3 mM MgCl2. The reaction mixtures were incubated at 37° C., and 50 μL aliquots were removed at 0, 5, 10, 20, and 30 minutes and added to shallow-well 96-well plates which contained 50 μL of ice-cold ACN with internal standard to stop the reactions. The plates were stored at 4° C. for 20 minutes after which 100 μL of water was added to the wells of the plate before centrifugation to pellet precipitated proteins. Supernatants were transferred to another 96-well plate and analyzed for amounts of parent remaining by LC-MS/MS using an Applied Bio-systems API 4000 mass spectrometer. The same procedure was followed for the non-deuterated counterpart of the compound of Formula B, Formula A, Formula I, Formula B-I, Formula C, or Formula E and the positive control, 7-ethoxycoumarin (1.0 μM). Testing was done in triplicate.
The in vitro t1/2s for test compounds were calculated from the slopes of the linear regression of % parent remaining (ln) vs incubation time relationship. in vitro t1/2=0.693/k k=−[slope of linear regression of % parent remaining(ln) vs incubation time]
(In general: Liver microsomes are vesicles of endoplasmic reticulum, rich in cytochrome P450 enzymes.)

For data set [2] the following is noted: intravenous, healthy male volunteers, cited from earlier work.
The conditions of data set [3]: relative to mibefradil; cited from earlier work.
The mark [4] stands for this setting: pH 7.4, Table 8a, 0.5 mg/mL HLM, 2 mM NADPH, 37° C., read-out: t1/2 Experiment 1.
Setting [5] is: pH 7.4, Table 8a, 0.5 mg/mL HLM, 2 mM NADPH, 37° C., read-out: t1/2 Experiment 2.
[6] abbreviates: pH 7.4, Table 8a, average of Experiments 1 and 2, read-out: t1/2 Ave.
The mark [7] stands for this setting: pH 7.4, Table 8b, 0.5 mg/mL HLM, 2 mM NADPH, 37° C., read-out: t1/2 Experiment 1.
[8] abbreviates: pH 7.4, Table 8b, 0.5 mg/mL HLM, 2 mM NADPH, 37° C., read-out: t1/2 Experiment 2.
Setting [9] is: pH 7.4, Table 8b, average of Experiments 1 and 2, read-out: t1/2 Ave.

Where a name gives a salt, the structure may show the parent alone. Read-outs that look alike come from different tables or passages of the source.

The text below walks through data of patent publication US9273009B2, “Tetrahydronaphthalene derivatives” (Concert Pharmaceuticals Inc., priority 2010, dated 2016).

On to `[2H]C1([2H])c2cc(F)ccc2[C@H](C(C)C)[C@](CCN(C)CCCc2nc3ccccc3[nH]2)(OC(=O)COC)C1([2H])[2H]` [Compound 500, (1S,2S)-2-(2-((3-(1H-Benzo[d]imidazol-2-yl)propyl)(methyl)amino)ethyl)-3,3,4,4-tetradeutero-6-fluoro-1-isopropyl-1,2,3,4-tetrahydronaphthalen-2-yl 2-methoxyacetate], for which the “half life (t1/2) shorter than that of mibefradil” value in data set [1] (HLM, from Table 8a) was “approximately 44%”. The half-life was 4.61 min in data set [1] (setting [4]), 4.98 min in data set [1] (setting [5]) and 4.79 min in data set [1] (setting [6]).
Consider `[2H]C([2H])([2H])N(CC[C@]1(OC(=O)COC)[C@@H](C(C)C)c2ccc(F)cc2C([2H])([2H])C1([2H])[2H])C([2H])([2H])C([2H])([2H])C([2H])([2H])c1nc2ccccc2[nH]1` [Compound 703a, (1S,2S)-2-(2-((3-(1H-Benzo[d]imidazol-2-yl)-1,1,2,2,3,3-hexadeuteropropyl)(trideuteromethyl)-amino)ethyl)-3,3,4,4-tetradeutero-6-fluoro-1-isopropyl-1,2,3,4-tetrahydronaphthalen-2-yl 2-methoxyacetate], for which the half-life in data set [1] (setting [4]) is 7.17 min; in data set [1] (setting [5]) it was 7.72 min; in data set [1] (setting [6]), 7.45 min.
As to `[2H]C1([2H])c2cc(F)ccc2[C@H](C(C)C)[C@](CCN(C)CCCc2nc3ccccc3[nH]2)(OC(=O)C2CC2)C1([2H])[2H]` [Compound 704a, (1S,2S)-2-(2-((3-(1H-Benzo[d]imidazol-2-yl)propyl)(methyl)amino)ethyl)-3,3,4,4-tetradeutero-6-fluoro-1-isopropyl-1,2,3,4-tetrahydronaphthalen-2-yl cyclopropanecarboxylate], the half-life in data set [1] (setting [7]) was 6.16 min; in data set [1] (setting [8]) it was 6.6 min; in data set [1] (setting [9]) it was 6.38 min.
For `[2H]C([2H])([2H])N(CC[C@]1(OC(=O)C2CC2)[C@@H](C(C)C)c2ccc(F)cc2C([2H])([2H])C1([2H])[2H])C([2H])([2H])C([2H])([2H])C([2H])([2H])c1nc2ccccc2[nH]1` [Compound 707a, (1S,2S)-2-(2-((3-(1H-Benzo[d]imidazol-2-yl)-1,1,2,2,3,3-hexadeuteropropyl)(trideuteromethyl)-amino)ethyl)-3,3,4,4-tetradeutero-6-fluoro-1-isopropyl-1,2,3,4-tetrahydronaphthalen-2-yl cyclopropanecarboxylate], the results for the half-life in data set [1] (setting [7]), in data set [1] (setting [8]) and in data set [1] (setting [9]) were 7.27 min, 7.03 min and 7.15 min, respectively.
Regarding `COCC(=O)O[C@]1(CCN(C)CCCc2nc3ccccc3[nH]2)CCc2cc(F)ccc2[C@@H]1C(C)C` [Mibefradil, (1S,2S)-2-(2-((3-(2-benzimidazolylpropyl)methylamino)ethyl)-6-fluoro-1,2,3,4-tetrahydro-1-isopropyl-2-naphthyl methoxyacetatedihydrochloride, reference compound], the half-life in data set [1] (setting [4]) stood at 8.49 min; in data set [1] (setting [5]) it was 8.55 min; in data set [1] (setting [6]), 8.52 min. Also, the bilirubin result in data set [2] (in all cases) is “dose-dependent increase”. Further, the plasma haptoglobin result in data set [2] (in two cases) is listed as “severe decrease”.
Consider `CC(C)[C@H]1c2ccc(F)cc2CC[C@@]1(CCN(C)CCCc1nc2ccccc2[nH]1)OC(=O)C1CC1` [NNC 55-0396, reference compound], for which the half-life was determined as 6.58 min in data set [1] (setting [7]), 6.55 min in data set [1] (setting [8]) and 6.56 min in data set [1] (setting [9]).
As to `CC(C)C1c2ccc(F)cc2CCC1(O)CCN(C)CCCc1nc2ccccc2[nH]1` (stereo not shown) [Ro 40-5966], the “pharmacologic effect of the metabolite as share of that of the parent” value in data set [3] is reported as “approximately 10%”.
